Patent US6989158B1, “Gold-containing chemotherapeutic agents” (The Curators of the University of Missouri, priority 1999, dated 2006)

Assays:
[1] = test system: interperitoneal P388 leukemia; conditions: in vivo; cited from earlier work
[2] = Deaths of tumor bearing mice at larger doses; type: in vivo; conditions: doses significantly larger than in the table (20–25 μg/kg)
[3] = test system: cells derived from human colon carcinoma; assay: in vitro tumor growth suppression, cells derived from human colon carcinoma; type: cell-based; conditions: specific human cancer cell lines
From the text: When the non-radioactive analogue of the gold complex of THP [(Au(THP)4)]

Meth/A cells = assay: In vivo study, survival of Meth/A tumor bearing mice; parameters: species or system Balb/C mice
HCT-15 cells = assay: Histogram (cell cycle) studies; type: cell-based; conditions: 200 or 40 μg/ml, two days incubation
Description: Histogram studies were carried out using HCT-15 cells. In the enclosed figure that summarize histogram results the cells are numbered as follows: HCT-80 is the control; HCT-81 refers to a sample with 200 μg/ml of the gold compound; HCT-82 refers to a sample with 40 μg/ml of gold compound.
HCT-15 cells were incubated in 5% CO2 incubator for two days. Then the cells were harvested and analyzed using fluorescent techniques. […] This finding is in sharp contrast to he cytotoxic side effects of cisplatin which is known to cause disassociation of many phases. Additionally, most agents which are cytotoxic, block S or M+G2 phase after culturing for two days. The mode of cell suppression via G1 phase elongation, as observed for the gold compound, therefore functions differently.

[4] = Side effects in mice models; type: in vivo; conditions: preliminary findings
[5] = in vivo; cited from earlier work
peritoneal cancer cells = conditions: in vivo; cited from earlier work
solid tumor models = conditions: in vivo; cited from earlier work

Question: Which “activity against interperitoneal P388 leukemia” value [1] does the source give for CC[PH](CC)(CC)[Au][S][C@@H]1O[C@H](COC(C)=O)[C@@H](OC(C)=O)[C@H](OC(C)=O)[C@H]1OC(C)=O [Auranofin, (2,3,4,6-tetra-O-aceytl-1-thio-β-D-glucopyranosato-S)-(triethylphosphine) gold(I)] here?
Answer: Its value is “active”.

Question: For N.N.[Cl][Pt][Cl] [Cisplatin, cisplatin], which “deaths of tumor bearing mice” value [2] is on record?
Answer: The value was “resulted in the death of animals”.

Question: Which results are given for OCP(CO)CO.OCP(CO)CO.OCP(CO)CO.OCP(CO)CO.[Au+].[Cl-] [[Au(THP)4]Cl]?
Answer: deaths of tumor bearing mice [2]: did not result in deaths of tumor bearing mice; tumor cell suppression [3]: remarkable activity in suppressing tumor growth; survival of tumor bearing mice (Meth/A cells): remarkable survival of tumor bearing mice; effect on G1 phase of the cell cycle (HCT-15 cells): elongates G1 phase; toxic side effects [4]: no toxic cardiovascular or naphrotoxic side effects

Question: For [Au+].[Cl-].c1ccc(P(CCP(c2ccccc2)c2ccccc2)c2ccccc2)cc1.c1ccc(P(CCP(c2ccccc2)c2ccccc2)c2ccccc2)cc1 [[Au(dppe)2]Cl], which “toxicity in preclinical toxicology studies” value [5] is on record?
Answer: Its value is “cardiotoxicity”.

Question: What about the “activity against peritoneal cancer cells” value (peritoneal cancer cells) of the same compound?
Answer: The value was “marked activity”.

Question: And the “activity against solid tumor models” value (solid tumor models)?
Answer: Its value is “only slightly active”.
